Test results as given in publication PMC7578061, “Potent inhibition of tumour cell proliferation and immunoregulatory function by mitochondria-targeted atovaquone” (Scientific Reports, 2020).
Values belong to the molecule of their own block, whether it stands above or below them.

Experiments:
MiaPaCa-2 cells = assay: IncuCyte cell proliferation (cell confluence), MiaPaCa-2; assay type: cell-based, human; conditions: for Antiproliferative effect compared with corresponding Mito-ATO analogs: MiaPaCa-2 cells, Figure S3; for IC50: Homo sapiens, MIA PaCa-2, MiaPaCa-2 cells, confluence as control groups reach 98% confluency, read-out: IC50, inhibition of cell proliferation (cell confluence)
Description: (§1) The following cell lines were obtained from the American Type Culture Collection (Manassas, VA), where they were regularly authenticated: MiaPaCa-2 (ATCC#CRL-1420, human pancreatic cancer), MDA-MB-231 (ATCC#HTB-26, human breast cancer), A549 (ATCC#CCL-185, human lung cancer), LLC (ATCC#CLR-1642, mouse lung cancer). LKR13 mouse lung cancer cells were a gift from Dr. Jonathan M. Kurie (MD Anderson Cancer Center, Houston, TX)[30]. All cell lines were grown at 37 °C in 5% CO2. MiaPaCa-2 and MDA-MB-231 cells were maintained in DMEM medium (Thermo Fisher Scientific, #11965) supplemented with 10% foetal bovine serum. A549, LLC, and LKR13 cells were maintained in RPMI 1640 medium (Thermo Fisher Scientific, #11875), supplemented with 10% foetal bovine serum. All cells were stored in liquid nitrogen and used within 20 passages after thawing.
The IncuCyte Live-Cell Imaging system (IncuCyte Essen Bioscience Inc., Ann Arbor, MI) was used to monitor cell proliferation[11]–[13]. As shown in previous publications[11],[12], this imaging system is probe-free and noninvasive, and enables continuous monitoring of cell confluence over several days. The increase in the percentage of cell confluence was used as a surrogate marker of cell proliferation. In a 96-well plate, cells were plated at 1,000 cells per well in triplicates and left to adhere overnight.

[1] = system: CD4+ T cells from SMARTA triple reporter mice; assay: In vitro differentiation of CD4+ T regulatory cells, flow cytometry; assay type: cell-based, mouse; conditions: six days of culture; for Treg differentiation and/or survival: up to 60 µM; for Foxp3+ Treg differentiation and/or survival: varying concentrations; for Teff cell IFNγ production: dose-dependent
Description: Recent reports indicate that selective targeting and inhibiting of mitochondrial complex III mitigate and reverse immunosuppression by Treg cells, promoting the function of Teff cells[15],[17]. […] After six days, cells were stained to assess viability, phenotype, and function using flow cytometry.
Figure 5 In vitro differentiation of CD4^+ T regulatory cells under varying concentrations of Mito-ATOs and controls. After six days of culture, cells were stained for flow cytometry analysis. (left) Live/dead staining to assess the percentage of live CD4 + T cells within the lymphocyte gate. (middle) Teff cell function is shown as the frequency of IFNγ-YFP positive cells within the live CD4^+ T cells. (right) The percentage of Treg cells is shown as the frequency of FoxP3^+CD25^+ cells within the live CD4^+ T cells. […] I assigned them to Mito10-ATO from the label under the bar charts above. / Panel A contour plots: no measure is printed with the gate percentages. Only the axes CD25 and FoxP3 are printed.
To differentiate CD4^+ T cells into a T regulatory cell phenotype, splenocytes from SMARTA triple-reporter mice were processed and the red blood cell lysed using an ACK (ammonium-chloride-potassium) lysis buffer. The cells were then activated with 1 μg/mL GP61–80 peptide (GenScript, Piscataway, NJ) and 5 ng/mL TGF-β1 (Shenandoah Biotechnology, Inc., Warwick, PA). […] Cells were cultured for six days and split once cells reached confluency; cells were replenished with IL-2 and compound accordingly. After six days in culture, cells were stained to assess the viability and phenotypic analysis via flow cytometry. LIVE/DEAD fixable violet or aqua dead cell stain (Invitrogen, Carlsbad, CA) was used to assess cell viability. The following antibodies were used for flow cytometry staining: PercP anti-mouse CD4 (clone: GK1.5; BioLegend, San Diego, CA), APC/Cy7 anti-mouse CD25 (clone: PC61; BioLegend), and PE anti-mouse FOXP3 (clone: FJK-16S; eBioscience, San Diego, CA). Flow cytometry data were acquired using a BD LSRII (BD Biosciences, CA) flow cytometer and analysed using FlowJo (Treestar, Inc., Ashland, OR).

[2] = molecular target: T1, mitochondrial complex III (Homo sapiens, UniProt P00156+P47985); assay: Seahorse complex III-driven OCR in permeabilized MiaPaCa-2 cells; assay type: cell-based; design: carried out on acutely permeabilized cells in the presence of different mitochondrial substrates; endogenous in cells; host or cells: MiaPaCa-2 (A7); conditions: for Inhibition of complex III-induced oxygen consumption: MiaPaCa-2 cells, 24 h; for IC50: MiaPaCa-2 cells treated 24 h, duroquinol, read-out: Complex III IC50 (AA-inhibitable OCR)
Description: The mitochondrial complex activities were assessed by measuring the oxygen consumption rate (OCR) using the Seahorse technique[6],[11]–[14]. MiaPaCa-2 cells were treated separately with Mito-ATO analogs at different concentrations for 24 h and OCR was measured.
Figure 2 Effects of Mito-ATO analogs on the oxygen consumption induced by mitochondrial complexes I and III. […] MiaPaCa-2 cells were treated with Mito-ATO for 24 h. Relative complex I (1.5 mM malate, 10 mM pyruvate, 10 mM ADP)-driven OCR (left) and relative complex III (0.5 mM duroquinol, 10 mM ADP)-driven OCR (right) were monitored by XF-96 analyser. Either Rot (complex I inhibitor) or antimycin A (AA, complex III inhibitor) was acutely added and OCR assayed immediately. […] Dashed lines represent the fitting curves used for determination of the IC50 values. (n.a., not applicable).
(§2) Mitochondrial bioenergetic function was measured in real time using the Seahorse XF 96 Extracellular Flux Analyzer (Agilent, North Billerica, MA)[11]–[13],[22]. The OCR-based assessment of mitochondrial complex activities was carried out on acutely permeabilized cells in the presence of different mitochondrial substrates, i.e., pyruvate/malate, for complex I and duroquinol for complex III[11],[14],[31],[32]. Rot, malonate, and antimycin A (Sigma-Aldrich, St. Louis, MO) were used as specific inhibitors of mitochondrial complexes I, II, and III, respectively. Briefly, cells that were intact after treatments were immediately permeabilized using the Seahorse XF Plasma Membrane Permeabilizer (Agilent). The mitochondrial complex I-driven OCR was assayed in mannitol and sucrose buffer[31] containing 10 mM pyruvate and 1.5 mM malate (substrates for complex I) and 10 mM malonate (which inhibits complex II activities). The mitochondrial complex III-driven OCR was assayed in mannitol and sucrose buffer containing 0.5 mM duroquinol (substrate for complex III) and 1 µM Rot and 10 mM malonate (which inhibit both complex I and II activities). The mitochondrial complex-dependent oxygen consumption (calculated as Rot- or antimycin A-inhibitable OCR equals basal OCR less OCR after Rot or antimycin A injection) was plotted against concentrations to determine the IC50 values.

[3] = system: A549 human lung cancer cells; assay: IncuCyte cell proliferation (cell confluence), A549; assay type: cell-based; conditions: read-out: IC50, inhibition of cell proliferation (cell confluence)
Description: (§3) Previous reports provide evidence for enhanced uptake of several mitochondria-targeted cationic agents into cancer cells as compared with non-transformed control cells[11]–[14].
as §1
(§4) The IncuCyte Live-Cell Imaging system (IncuCyte Essen Bioscience Inc., Ann Arbor, MI) was used to monitor cell proliferation[11]–[13]. As shown in previous publications[11],[12], this imaging system is probe-free and noninvasive, and enables continuous monitoring of cell confluence over several days. […]

[4] = system: MDA-MB-231 human breast cancer cells; assay: IncuCyte cell proliferation (cell confluence), MDA-MB-231; assay type: cell-based; conditions: MDA-MB-231 cells, read-out: IC50, inhibition of cell proliferation (cell confluence)
Description: as §3, §1, §4

[5] = system: LLC mouse lung cancer cells; assay: IncuCyte cell proliferation (cell confluence), LLC; assay type: cell-based; conditions: Lewis lung carcinoma, read-out: IC50, inhibition of cell proliferation (cell confluence)
Description: as §3, §1, §4

[6] = system: LKR13 mouse lung cancer cells; assay: IncuCyte cell proliferation (cell confluence), LKR13; assay type: cell-based; conditions: read-out: IC50, inhibition of cell proliferation (cell confluence)
Description: as §3, §1, §4

[7] = molecular target: T2, mitochondrial complex III (Mus musculus, UniProt P00158+Q9CR68); assay: Seahorse complex III-driven OCR in LLC cells; assay type: cell-based
T2 construct: carried out on acutely permeabilized cells in the presence of different mitochondrial substrates; endogenous in cells; host or cells: LLC (A11); LKR13 (A13)
Description: (§5) Dashed lines represent the fitting curves used for determination of the IC50 values.
as §2, with “The mitochondrial complex III-driven OCR was assayed in mannitol and sucrose buffer containing 0.5 mM duroquinol (substrate for complex III) and 1 µM Rot and 10 mM malonate (which inhibit both complex I and II activities).” left out

[8] = molecular target: T2, mitochondrial complex III; assay: Seahorse complex III-driven OCR in LKR13 cells; assay type: cell-based
Description: as §5
as §2, with “The mitochondrial complex III-driven OCR was assayed in mannitol and sucrose buffer containing 0.5 mM duroquinol (substrate for complex III) and 1 µM Rot and 10 mM malonate (which inhibit both complex I and II activities).” left out

[9] = molecular target: T1, mitochondrial complex III; assay: Seahorse complex III-driven OCR in A549 cells; assay type: cell-based; design: carried out on acutely permeabilized cells in the presence of different mitochondrial substrates; endogenous in cells; host or cells: A549 (A9)
Description: as §5
as §2, with “The mitochondrial complex III-driven OCR was assayed in mannitol and sucrose buffer containing 0.5 mM duroquinol (substrate for complex III) and 1 µM Rot and 10 mM malonate (which inhibit both complex I and II activities).” left out

Compound: CCCCCCCCCCOC1=C([C@H]2CC[C@H](c3ccc(Cl)cc3)CC2)C(=O)c2ccccc2C1=O [Decyl-ATO]
Antiproliferative effect compared with corresponding Mito-ATO analogs (MiaPaCa-2 cells): much less effective
Treg differentiation and/or survival [1]: did not inhibit

Compound: O=C1C(O)=C([C@H]2CC[C@H](c3ccc(Cl)cc3)CC2)C(=O)c2ccccc21 [ATO, Atovaquone]
IC50 (MiaPaCa-2 cells): 18000 nM
IC50 [3]: 16000 nM
IC50 [4]: 18000 nM
IC50 [5]: 13000 nM
IC50 [6]: 10000 nM
Treg differentiation and/or survival [1]: did not inhibit

Compound: CCCCOC1=C([C@H]2CC[C@H](c3ccc(Cl)cc3)CC2)C(=O)c2ccccc2C1=O [Butyl-ATO]
Antiproliferative effect compared with corresponding Mito-ATO analogs (MiaPaCa-2 cells): much less effective
Treg differentiation and/or survival [1]: did not inhibit

Compound: O=C1C(OCCCC[P+](c2ccccc2)(c2ccccc2)c2ccccc2)=C([C@H]2CC[C@H](c3ccc(Cl)cc3)CC2)C(=O)c2ccccc21 [Mito4-ATO]
IC50 (MiaPaCa-2 cells): 180 nM
Foxp3+ Treg differentiation and/or survival [1]: inhibited
Teff cell IFNγ production [1]: promoted
IC50 [2]: 580 nM

Compound: O=C1C(OCCCCCCCCCCCC[P+](c2ccccc2)(c2ccccc2)c2ccccc2)=C([C@H]2CC[C@H](c3ccc(Cl)cc3)CC2)C(=O)c2ccccc21 [Mito12-ATO]
Foxp3+ Treg differentiation and/or survival [1]: did not appreciably inhibit
Inhibition of complex III-induced oxygen consumption [2]: did not inhibit

Continued, in another order:

IC50 (MiaPaCa-2 cells): 3000 nM
Inhibition of complex III-induced oxygen consumption [2]: did not inhibit
Compound: O=C1C(OCCCCCCCCCCCCCCCC[P+](c2ccccc2)(c2ccccc2)c2ccccc2)=C([C@H]2CC[C@H](c3ccc(Cl)cc3)CC2)C(=O)c2ccccc21 [Mito16-ATO]

IC50 (MiaPaCa-2 cells): 220 nM
IC50 [3]: 140 nM
IC50 [4]: 230 nM
IC50 [5]: 460 nM
IC50 [6]: 500 nM
IC50 [7]: 500 nM
IC50 [8]: 2100 nM
IC50 [9]: 1000 nM
IC50 [2]: 780 nM
Compound: O=C1C(OCCCCCCCCCC[P+](c2ccccc2)(c2ccccc2)c2ccccc2)=C([C@H]2CC[C@H](c3ccc(Cl)cc3)CC2)C(=O)c2ccccc21 [Mito10-ATO]
Foxp3+ Treg differentiation and/or survival [1]: inhibited
Teff cell IFNγ production [1]: promoted
